Data from US20110190246A1, “ESTRATRIENE DERIVATIVES COMPRISING HETEROCYCLIC BIOISOSTERES FOR THE PHENOLIC A-RING” (Bayer Schering Pharma Aktiengesellschaft, priority 2008, published 2011).
One block for each compound: values may come before it.

What was measured:
[1] = tested on: human cryopreserved hepatocytes; test: Stability in hepatocytes; format: in vitro ADME; settings: maximal theoretical bioavailability
Procedure: The metabolic stability of test compounds with respect to phase 1 and phase 2 metabolisms was investigated by incubation of the compounds with hepatocytes. These investigations were performed for characterisation of compounds in case of phase 2 metabolism is to be expected. […] After analytical workup the concentrations of the test compounds after different incubation periods were related to the initial concentration of the respective test compound (zero hour's time point). The resulting area under the concentration-time-curve of the test compound investigated in the assay is used to derive the respective Fmax value.

[2] = tested on: hepatic gene CaBP; test: Induction of the hepatic gene CaBP (hepatic estrogenicity); format: in vivo; settings: dose response curves, FIGS. 1-3
Text: Data regarding the uterine and hepatic activity of example 1 and example 4 in comparison to Ethinylestradiol are shown in FIGS. 1, 2, and 3. Dose response curves describing the increases in relative uterine weight (closed circles) and the induction of the hepatic gene CaBP (open circles) are shown for ethinylestradiol (FIG 1), example 1 (FIG. 2), and example 4 (FIG. 3). […] This may implicate that compounds of example 1 and 4 show lower hepatic estrogenicity if compared to Ethinylestradiol.

[3] = biological target: T1, ERα (Homo sapiens, UniProt P03372); test: Transactivation assay in stably transfected MCF-7 cells (MVLN assay); format: cell-based; design: MCF-7 cells endogenously expressing ERα; endogenous in cells; host or cells: MCF-7 stably transfected with vitellogenin-tk-luciferase reporter (MVLN)
T1 sequence (P03372 1-595): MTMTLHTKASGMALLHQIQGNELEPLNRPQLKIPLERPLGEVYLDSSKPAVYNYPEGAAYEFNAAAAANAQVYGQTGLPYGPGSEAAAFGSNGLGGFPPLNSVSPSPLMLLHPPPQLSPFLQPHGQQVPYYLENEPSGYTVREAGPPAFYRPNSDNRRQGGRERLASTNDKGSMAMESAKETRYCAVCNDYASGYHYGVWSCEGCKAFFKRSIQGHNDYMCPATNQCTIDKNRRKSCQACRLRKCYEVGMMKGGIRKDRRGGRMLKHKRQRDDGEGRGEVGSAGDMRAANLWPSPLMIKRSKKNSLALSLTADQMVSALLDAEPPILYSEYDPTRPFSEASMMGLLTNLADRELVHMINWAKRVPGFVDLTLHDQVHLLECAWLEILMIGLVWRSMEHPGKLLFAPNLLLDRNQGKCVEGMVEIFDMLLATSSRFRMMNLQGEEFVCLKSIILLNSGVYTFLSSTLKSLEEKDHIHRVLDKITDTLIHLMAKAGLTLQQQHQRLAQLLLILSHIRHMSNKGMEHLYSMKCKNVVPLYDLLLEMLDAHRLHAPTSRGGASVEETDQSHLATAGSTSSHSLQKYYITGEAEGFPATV
Procedure: To analyse activation of the ERα by diverse tool compounds in a second cellular system, we used MCF-7 cells endogenously expressing ERα and stably transfected with the estrogen-responsive vitellogenin-tk-luciferase reporter plasmid. […]. Luciferase activity was measured after addition of 25 μl steady-Glo in a TopCount. Dose response curves were generated and EC50 values were calculated using Sigma plot.

[4] = biological target: T2, estrogen receptor α (ERα) (Homo sapiens, UniProt P03372); test: Binding to estrogen receptor α (competition with 3H-estradiol); settings: KF = IC50 of test compound / IC50 of estradiol
T2 construct: made in house; host or cells: Hi5 insect cells (baculovirus)
Procedure: The ERα protein used in the binding assay was purified from cytosolic fractions of Hi5 cells transfected with recombinant bacuioviruses encoding either the human ERα. Aliquots of cytosolic fractions were stored at −80° C. and had protein concentrations of 5-7 mg/ml (as determined by the BCA method).
30 μl of cytosol were added leading to a final volume of 50 μl per well. […] The protein-bound radioactivity was measured by addition of 200 μl Microszint-40 (Canberra Packard) to each well using a TopCount scintillation counter.

[5] = biological target: T1, ERα; test: Induction of alkaline phosphatase in human endometrial Ishikawa cells; format: cell-based; settings: 72 hours, read-out: EC50 Alkaline phoshatase induction, Ishikawa cells
Procedure: Alkaline phosphatase is an estrogen target gene in the normal uterine epithelium as well as in endometrial-derived cancer cells, such as Ishikawa cells. […]. Ishikawa cells (from European collection of cell cultures) were maintained in phenolred-free MEM with 5% FCS, 4 mM glutamine, 1% non, essential amino acids and 100 U/ml penicillin and 100 μg/ml streptomycin. […]. On the third day, the media were removed; cells were washed two times with 50 μl PBS and then frozen at −80° C. for 20 min. After thawing at room temperature for 10 min, cells were incubated with 100 μl of 1-Step PNPP reagent (Pierce) and incubated for 1.5 h at room temperature. OD was measured at 405 nm sing a Polarstar Optima. Dose response curves were generated using and ED50 values were calculated using Sigma plot.

[6] = biological target: T3, ERα (Rattus norvegicus, UniProt P06211); test: Stimulation of uterine growth in vivo in ovariectomized rats; design: species or system Wistar rats; settings: for uterotrophic activity (increase in relative uterine weight): dose response curves, FIGS. 2-3
T3 construct: from tissue; host or cells: uterus of ovariectomized adult female Wistar rats (in vivo)
T3 sequence (P06211 1-600): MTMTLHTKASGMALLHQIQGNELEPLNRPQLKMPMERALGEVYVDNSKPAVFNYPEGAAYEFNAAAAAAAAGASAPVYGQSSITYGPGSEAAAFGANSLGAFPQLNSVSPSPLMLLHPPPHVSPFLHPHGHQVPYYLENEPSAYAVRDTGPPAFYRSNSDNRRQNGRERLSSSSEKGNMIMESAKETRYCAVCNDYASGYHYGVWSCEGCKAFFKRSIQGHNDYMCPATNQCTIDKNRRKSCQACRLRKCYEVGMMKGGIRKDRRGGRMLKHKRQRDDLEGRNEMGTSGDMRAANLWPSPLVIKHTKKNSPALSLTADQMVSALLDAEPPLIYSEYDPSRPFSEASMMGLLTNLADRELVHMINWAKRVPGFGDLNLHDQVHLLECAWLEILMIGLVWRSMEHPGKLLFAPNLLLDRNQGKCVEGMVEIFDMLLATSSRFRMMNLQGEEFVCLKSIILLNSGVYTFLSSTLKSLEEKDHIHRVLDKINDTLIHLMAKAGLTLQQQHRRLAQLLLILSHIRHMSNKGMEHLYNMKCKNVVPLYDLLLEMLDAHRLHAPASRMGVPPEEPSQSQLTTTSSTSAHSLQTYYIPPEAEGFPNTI

[7] = biological target: T1, ERα; test: Transactivation assay in U2OS cells; format: cell-based; settings: U2OS cells transiently transfected with ERα and luciferase reporter, 24 hours
[8] = luciferase reporter, Table 2, read-out: MVLN-Transactivation (EC50 in nM)

SMILES: C[C@]12CC[C@@H]3c4ccc(O)cc4CC[C@H]3[C@@H]1CC[C@@H]2O [Estradiol, reference compound]
Fmax (calculated from hepatocyte stability) [1]: 17%

SMILES: C#C[C@]1(O)CC[C@H]2[C@@H]3CCc4cc(O)ccc4[C@H]3CC[C@@]21C [Ethinylestradiol, reference compound]
induction of the hepatic gene CaBP [2]: significant induction of CaBP

SMILES: C[C@]12CCC3c4ccc5[nH]ncc5c4CCC3C1CC[C@@H]2O (stereo partly drawn) [Example 1, 2′H-Pyrazolo[3′,4′:3,4]estra-1,3,5(10)-trien-17β-ol]
EC50 [3, 8]: 1.41 nM
EC50 ([3]; vitellogenin-tk-luciferase reporter, 24 hours, Table 1, read-out: EC50 ERα transactivation, MVLN assay): 1.42 nM
ERα binding [KF] [4]: 1.6
EC50 [5]: 0.759 nM
uterotrophic activity (increase in relative uterine weight) [6]: full uterotrophic activity
ED50 Uterine growth ([6]; ovariectomized Wistar rats, subcutaneously daily for 14 days, relative uterine weight): 8.25 μg/kg bodyweight
Fmax (calculated from hepatocyte stability) [1]: 34%
EC50 [7]: 0.082 nM
induction of the hepatic gene CaBP [2]: do not stimulate this hepatic gene

SMILES: C[C@]12CCC3c4ccc5[nH]ncc5c4CCC3C1CCC2=O (some centres unmarked) [Example 2, 2′H-Pyrazolo[3′,4′:3,4]estra-1,3,5(10)-trien-17-one]
EC50 [3, 8]: 12.6 nM

SMILES: C[C@]1(O)CCC2C3CCc4c(ccc5[nH]ncc45)C3CC[C@@]21C (stereo partly drawn) [Example 3, 17α-Methyl-2′H-pyrazolo[3′,4′:3,4]estra-1,3,5(10)-trien-17β-ol]
EC50 [3, 8]: 3.53 nM

SMILES: C#C[C@]1(O)CCC2C3CCc4c(ccc5[nH]ncc45)C3CC[C@@]21C (stereo partly drawn) [Example 4, 17α-Ethinyl-2′H-pyrazolo[3′,4′:3,4]estra-1,3,5(10)-trien-17β-ol]
EC50 [3, 8]: 1.01 nM
uterotrophic activity (increase in relative uterine weight) [6]: full uterotrophic activity
induction of the hepatic gene CaBP [2]: do not stimulate this hepatic gene

SMILES: C=C[C@]1(O)CCC2C3CCc4c(ccc5[nH]ncc45)C3CC[C@@]21C (stereo partly drawn) [Example 5, 17α-Vinyl-2′H-pyrazolo[3′,4′:3,4]estra-1,3,5(10)-trien-17β-ol]
EC50 [3, 8]: 3.72 nM

SMILES: CC[C@]1(O)CCC2C3CCc4c(ccc5[nH]ncc45)C3CC[C@@]21C (stereo partly drawn) [Example 6, 17α-Ethyl-2′H-pyrazolo[3′,4′:3,4]estra-1,3,5(10)-trien-17β-ol]
EC50 [3, 8]: 130 nM

SMILES: C=CC[C@]1(O)CCC2C3CCc4c(ccc5[nH]ncc45)C3CC[C@@]21C (stereo partly drawn) [Example 7, 17α-Allyl-2′H-pyrazolo[3′,4′:3,4]estra-1,3,5(10)-trien-17β-ol]
EC50 [3, 8]: 82.6 nM

Other lines, results leading:

EC50 [3, 8]: 16.5 nM
SMILES: CC#C[C@]1(O)CCC2C3CCc4c(ccc5[nH]ncc45)C3CC[C@@]21C (stereo partly drawn) [Example 8, 17α-(Prop-1-inyl)-2′H-pyrazolo[3′,4′:3,4]estra-1,3,5(10)-trien-17β-ol]

EC50 [3, 8]: 77.3 nM
SMILES: C[C@]12CCC3c4ccc5[nH]ncc5c4CCC3C1CC[C@@]2(O)C(F)(F)F (stereo partly drawn) [Example 9, 17α-Trifluoromethyl-2′H-pyrazolo[3′,4′:3,4]estra-1,3,5(10)-trien-17β-ol]

EC50 [3, 8]: 270 nM
SMILES: C[C@]12CCC3c4ccc5[nH]ncc5c4CCC3C1CC[C@@]2(O)C(F)(F)C(F)(F)F (stereo partly drawn) [Example 10, 17α-Pentafluoroethyl-2′H-pyrazolo[3′,4′:3,4]estra-1,3,5(10)-trien-17β-ol]

EC50 [3, 8]: 308 nM
SMILES: C[C@]12CCC3c4ccc5[nH]nnc5c4CCC3C1CCC2=O (some centres unmarked) [Example 11, 3′H-Triazolo[4′,5′:3,4]estra-1,3,5(10)-trien-17-on]
